Measured values from the NIST ThermoML archive (doi:10.1021/je060271a).
Values joined by “and” are separate entries in the source; they are usually repeats but may differ in a detail not shown here. Equal entries are not always repeated.

Conditions: Liquid, Vibrating tube method

CCCCCC(=O)OCC(COC(=O)CCCCC)(COC(=O)CCCCC)COC(=O)CCCCC [pentaerythritol tetrahexanoate]
Conditions	mass density
283.16 K, 9726 kPa	1009.7 kg/m3
283.16 K, 9740.5 kPa	1009.7 kg/m3
283.16 K, 11666 kPa	1010.8 kg/m3
283.16 K, 11699 kPa	1010.9 kg/m3
283.16 K, 11719 kPa	1011 kg/m3
283.16 K, 11736 kPa	1010.9 kg/m3
283.16 K, 11882 kPa	1011 kg/m3
283.16 K, 15896 kPa	1013.2 kg/m3
283.16 K, 15917 kPa	1013.2 kg/m3
283.16 K, 15934 kPa	1013.3 kg/m3
283.16 K, 15952 kPa	1013.2 kg/m3
283.16 K, 15973 kPa	1013.2 kg/m3
283.16 K, 15990 kPa	1013.1 kg/m3
283.16 K, 16007 kPa	1013.1 kg/m3
283.16 K, 16028 kPa	1013.2 kg/m3
283.16 K, 16047 kPa	1013.4 kg/m3
283.16 K, 17073 kPa	1013.9 kg/m3
283.16 K, 17091 kPa	1013.8 kg/m3
283.16 K, 17101 kPa	1013.8 kg/m3
283.16 K, 17102 kPa	1013.8 kg/m3
283.16 K, 17103 kPa	1013.9 kg/m3
283.16 K, 21750 kPa	1016.3 kg/m3
283.16 K, 24165 kPa	1017.6 kg/m3
283.16 K, 24256 kPa	1017.8 kg/m3
283.16 K, 24293 kPa	1017.8 kg/m3
283.16 K, 24310 kPa	1017.7 kg/m3
283.16 K, 24348 kPa	1017.7 kg/m3
283.16 K, 26923 kPa	1019 kg/m3
283.16 K, 26937 kPa	1019 kg/m3
303.14 K, 14075 kPa	997.2 kg/m3
303.14 K, 21030 kPa	1001.2 kg/m3
303.14 K, 32666 kPa	1007.6 kg/m3
303.14 K, 32689 kPa	1007.7 kg/m3
303.14 K, 32708 kPa	1007.8 kg/m3
303.14 K, 32727 kPa	1007.7 kg/m3
303.14 K, 32750 kPa	1007.8 kg/m3
303.14 K, 32770 kPa	1007.7 kg/m3
303.14 K, 32789 kPa	1007.7 kg/m3
303.14 K, 34002 kPa	1008.2 kg/m3
303.14 K, 34004 kPa	1008.4 kg/m3
303.14 K, 34018 kPa	1008.3 kg/m3
303.14 K, 34022 kPa	1008.4 kg/m3
303.14 K, 34024 kPa	1008.4 kg/m3
303.14 K, 34030 kPa	1008.3 kg/m3
303.14 K, 34038 kPa	1008.4 kg/m3
303.14 K, 34043 kPa	1008.4 kg/m3
303.14 K, 34049 kPa	1008.2 kg/m3
303.14 K, 34053 kPa	1008.4 kg/m3
303.14 K, 34057 kPa	1008.5 kg/m3
303.14 K, 34060 kPa	1008.3 kg/m3
303.14 K, 34063 kPa	1008.4 kg/m3
303.14 K, 34084 kPa	1008.5 kg/m3
303.14 K, 34101 kPa	1008.4 kg/m3
303.14 K, 34115 kPa	1008.4 kg/m3
303.14 K, 34131 kPa	1008.4 kg/m3
303.14 K, 34147 kPa	1008.4 kg/m3
303.14 K, 34159 kPa	1008.4 kg/m3
303.14 K, 34165 kPa	1008.6 kg/m3
303.14 K, 34169 kPa	1008.5 kg/m3
303.14 K, 34174 kPa	1008.4 kg/m3
303.15 K, 191.8 kPa	988.6 kg/m3
303.15 K, 192.2 kPa	988.4 kg/m3
303.15 K, 192.4 kPa	988.5 kg/m3
303.15 K, 192.5 kPa	988.3 kg/m3
303.15 K, 192.7 kPa	988.4 kg/m3
303.15 K, 193.2 kPa	988.5 kg/m3
303.15 K, 193.4 kPa	988.5 kg/m3 and 988.4 kg/m3
303.15 K, 193.6 kPa	988.6 kg/m3
303.15 K, 193.9 kPa	988.5 kg/m3
303.15 K, 194.8 kPa	988.4 kg/m3 and 988.5 kg/m3
303.15 K, 195 kPa	988.5 kg/m3
303.15 K, 195.1 kPa	988.5 kg/m3
303.15 K, 195.8 kPa	988.6 kg/m3 and 988.4 kg/m3
303.15 K, 196 kPa	988.5 kg/m3
303.15 K, 196.2 kPa	988.3 kg/m3
303.15 K, 196.3 kPa	988.5 kg/m3
303.15 K, 196.5 kPa	988.5 kg/m3 and 988.6 kg/m3
303.15 K, 198.2 kPa	988.4 kg/m3 and 988.5 kg/m3
303.15 K, 198.4 kPa	988.4 kg/m3
303.15 K, 198.8 kPa	988.4 kg/m3 and 988.5 kg/m3
303.15 K, 198.9 kPa	988.5 kg/m3
303.15 K, 199.1 kPa	988.5 kg/m3
303.15 K, 199.3 kPa	988.4 kg/m3
303.15 K, 199.6 kPa	988.5 kg/m3 and 988.6 kg/m3
303.15 K, 200.9 kPa	988.4 kg/m3
303.15 K, 202.8 kPa	988.4 kg/m3
303.15 K, 203.1 kPa	988.5 kg/m3
303.15 K, 203.3 kPa	988.5 kg/m3
303.15 K, 203.5 kPa	988.4 kg/m3
303.15 K, 203.8 kPa	988.4 kg/m3
303.15 K, 204 kPa	988.5 kg/m3
303.15 K, 204.5 kPa	988.4 kg/m3
303.15 K, 204.7 kPa	988.4 kg/m3
303.15 K, 204.9 kPa	988.5 kg/m3 and 988.6 kg/m3
303.15 K, 205 kPa	988.5 kg/m3
303.15 K, 205.4 kPa	988.5 kg/m3 and 988.4 kg/m3
303.15 K, 205.7 kPa	988.5 kg/m3 and 988.6 kg/m3
303.15 K, 206.1 kPa	988.5 kg/m3
303.15 K, 206.2 kPa	988.5 kg/m3 and 988.4 kg/m3
303.15 K, 206.4 kPa	988.5 kg/m3
303.15 K, 206.8 kPa	988.4 kg/m3
303.15 K, 206.9 kPa	988.3 kg/m3
303.15 K, 208.3 kPa	988.4 kg/m3
303.15 K, 208.7 kPa	988.4 kg/m3
303.15 K, 210.1 kPa	988.5 kg/m3 and 988.4 kg/m3
303.15 K, 210.6 kPa	988.5 kg/m3
303.15 K, 210.9 kPa	988.3 kg/m3 and 988.4 kg/m3
303.15 K, 211.1 kPa	988.4 kg/m3 and 988.5 kg/m3 and 988.3 kg/m3
303.15 K, 211.8 kPa	988.5 kg/m3 and 988.6 kg/m3
303.15 K, 212 kPa	988.5 kg/m3
303.15 K, 212.3 kPa	988.4 kg/m3
303.15 K, 213.2 kPa	988.4 kg/m3
303.15 K, 213.6 kPa	988.5 kg/m3
303.15 K, 213.7 kPa	988.6 kg/m3
303.15 K, 214.1 kPa	988.5 kg/m3
303.15 K, 214.2 kPa	988.5 kg/m3
303.15 K, 214.4 kPa	988.5 kg/m3
303.15 K, 214.6 kPa	988.6 kg/m3
303.15 K, 214.8 kPa	988.5 kg/m3
303.15 K, 215.1 kPa	988.4 kg/m3
303.15 K, 215.5 kPa	988.5 kg/m3
303.15 K, 215.6 kPa	988.4 kg/m3 and 988.5 kg/m3
303.15 K, 216 kPa	988.5 kg/m3
303.15 K, 216.2 kPa	988.5 kg/m3
303.15 K, 216.5 kPa	988.5 kg/m3
303.15 K, 216.7 kPa	988.6 kg/m3
303.15 K, 216.9 kPa	988.5 kg/m3
303.15 K, 217 kPa	988.5 kg/m3
303.15 K, 217.2 kPa	988.4 kg/m3
303.15 K, 217.7 kPa	988.4 kg/m3
303.15 K, 218.1 kPa	988.5 kg/m3
303.15 K, 218.2 kPa	988.5 kg/m3
303.15 K, 218.6 kPa	988.5 kg/m3
303.15 K, 219.1 kPa	988.5 kg/m3
303.15 K, 219.4 kPa	988.6 kg/m3
303.15 K, 219.6 kPa	988.5 kg/m3
303.15 K, 219.8 kPa	988.4 kg/m3
303.15 K, 220 kPa	988.4 kg/m3
303.15 K, 220.2 kPa	988.4 kg/m3
303.15 K, 220.3 kPa	988.4 kg/m3
303.15 K, 224.1 kPa	988.4 kg/m3
303.15 K, 224.8 kPa	988.5 kg/m3
303.15 K, 225.2 kPa	988.4 kg/m3
303.15 K, 225.4 kPa	988.5 kg/m3
303.15 K, 228.3 kPa	988.6 kg/m3
